Laboratory results taken from ChEMBL document CHEMBL3785011, “New IKK inhibitors: Synthesis of new imidazo[1,2-a]quinoxaline derivatives using microwave assistance and biological evaluation as IKK inhibitors” (Eur J Med Chem, 2016).
Activity calls are given as the source filed them. No cut-off for these calls is given here.

Tests used:
[1] = target: T1, Inhibitor of nuclear factor kappa-B kinase subunit alpha (Homo sapiens) (UniProt O15111); assay: Inhibition of human recombinant His tagged IKK1 expressed in baculovirus at 10 uM after 60 mins by Adapta assay
T1 sequence (whole entry): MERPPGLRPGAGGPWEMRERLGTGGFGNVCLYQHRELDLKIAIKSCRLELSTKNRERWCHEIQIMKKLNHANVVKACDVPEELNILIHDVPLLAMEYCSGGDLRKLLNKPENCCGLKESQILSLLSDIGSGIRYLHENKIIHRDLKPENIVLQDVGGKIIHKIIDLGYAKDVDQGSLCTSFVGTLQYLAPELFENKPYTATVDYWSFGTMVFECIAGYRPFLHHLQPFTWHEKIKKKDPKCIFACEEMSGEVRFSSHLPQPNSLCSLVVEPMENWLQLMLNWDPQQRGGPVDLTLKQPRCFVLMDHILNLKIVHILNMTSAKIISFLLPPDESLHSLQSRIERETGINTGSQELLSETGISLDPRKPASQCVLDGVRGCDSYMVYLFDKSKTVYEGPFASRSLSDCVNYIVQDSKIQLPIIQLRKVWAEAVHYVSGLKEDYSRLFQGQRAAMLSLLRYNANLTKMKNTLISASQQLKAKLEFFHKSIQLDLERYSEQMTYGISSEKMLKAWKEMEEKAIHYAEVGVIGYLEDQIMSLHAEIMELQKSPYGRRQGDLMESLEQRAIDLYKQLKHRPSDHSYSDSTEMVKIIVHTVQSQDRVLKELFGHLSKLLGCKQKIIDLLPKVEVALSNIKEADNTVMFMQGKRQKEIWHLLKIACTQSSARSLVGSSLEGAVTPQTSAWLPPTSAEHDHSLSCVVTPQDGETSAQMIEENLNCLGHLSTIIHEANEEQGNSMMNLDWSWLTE

[2] = target: T2, Inhibitor of nuclear factor kappa-B kinase subunit beta (Homo sapiens) (UniProt O14920); assay: Inhibition of human recombinant GST tagged IKK2 expressed in baculovirus using Ser/Thr05 peptide as substrate at 10 uM after 60 mins by Z-LYTE assay
T2 sequence (whole entry): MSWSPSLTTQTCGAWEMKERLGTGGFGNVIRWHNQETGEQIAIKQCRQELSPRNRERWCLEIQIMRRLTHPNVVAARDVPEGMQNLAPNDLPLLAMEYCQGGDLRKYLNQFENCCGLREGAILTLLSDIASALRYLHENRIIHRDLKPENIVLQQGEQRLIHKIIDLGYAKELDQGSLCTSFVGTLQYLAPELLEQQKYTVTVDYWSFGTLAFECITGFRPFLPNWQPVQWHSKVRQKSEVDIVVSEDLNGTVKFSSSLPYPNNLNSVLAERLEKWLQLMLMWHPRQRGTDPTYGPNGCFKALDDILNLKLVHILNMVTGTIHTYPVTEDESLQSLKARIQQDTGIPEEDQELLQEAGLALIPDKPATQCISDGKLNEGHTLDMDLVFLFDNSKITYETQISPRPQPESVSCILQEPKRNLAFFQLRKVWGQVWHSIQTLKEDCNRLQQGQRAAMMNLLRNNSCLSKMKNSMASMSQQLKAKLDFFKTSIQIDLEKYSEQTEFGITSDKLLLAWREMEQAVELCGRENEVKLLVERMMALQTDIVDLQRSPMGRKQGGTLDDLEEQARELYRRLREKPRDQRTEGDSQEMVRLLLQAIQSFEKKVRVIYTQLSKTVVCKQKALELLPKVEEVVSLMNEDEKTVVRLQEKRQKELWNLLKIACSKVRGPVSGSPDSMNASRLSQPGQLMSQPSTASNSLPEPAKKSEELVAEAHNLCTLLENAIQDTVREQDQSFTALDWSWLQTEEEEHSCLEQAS

[3] = target: T3, Inhibitor of nuclear factor kappa-B kinase subunit beta (Homo sapiens, UniProt O14920); assay: Inhibition of human recombinant GST tagged IKK2 expressed in baculovirus using Ser/Thr05 peptide as substrate after 60 mins by Z-LYTE assay
T3 sequence (O14920 whole entry): T2 sequence (whole entry)

SMILES	inhibition [1]	inhibition [2]	IC50 [3]
CNc1nc2ccc(C)cc2n2c(C)cnc12	1%	65%	773 nM
CNc1nc2cc(C)ccc2n2ccnc12	9%	50%	
CNc1nc2ccc(C)cc2n2c(-c3cccc(OC)c3)cnc12	3%	3%	
CNc1nc2cc(C)ccc2n2c(Br)cnc12	26%	54%	
CNc1nc2ccccc2n2ccnc12	7%	54%	
CNc1nc2ccccc2n2c(Br)cnc12	23%	60%	
CNc1nc2cc(C)ccc2n2c(-c3cccc(OC)c3)cnc12	7%	inactive	
CNc1nc2ccc(C)cc2n2ccnc12	9%	64%	579 nM
CNc1nc2ccccc2n2c(-c3cccc(OC)c3)cnc12	13%	2%	
Cc1ccc2nc(NCCN)c3ncc(C)n3c2c1	8%	64%	
CNc1nc2cc(C)ccc2n2c(C)cnc12	19%	57%	
CNc1nc2ccccc2n2c(C)cnc12	7%	61%	
CNc1nc2ccc(C)cc2n2c(Br)cnc12	13%	72%	324 nM
